Data: US9815878B2, “Use of PEDF-derived polypeptides for preventing and/or ameliorating skin aging” (MacKay Memorial Hospital, priority 2012, dated 2017)

Key:
[1] = test system: MMP-1; assay: UVB-induced MMP-1 protein expression in WS-1 cells, western blotting; format: cell-based, human; details: for MMP-1 Expression Level (%): Vehicle/UVB set to 100%; for MMP-1 protein level relative to vehicle/UVB group: pre-incubation with peptide
Procedure: Human skin fibroblast WS-1 cell line was obtained from Food Industry Research and Development Institute (Hsin-Chu, Taiwan). The WS-1 cells were maintained in a 37° C., 5% CO2 humidified incubator as monolayers in culture flasks. They were grown in 10% FBS-DMEM supplemented with 2 mM L-glutamine, 0.1 mM non-essential amino acids, 1% penicillin/streptomycin. For passage, near-confluent cells were sub-cultured by 0.25% trypsin/EDTA.
(§1) Skin tissues were homogenized in ice-cold lysis buffer containing 20 mM HEPES (pH 7.4), 150 mM NaCl, 1% SDS, 1 mM ethylenediamine tetraacetic acid (EDTA), 5 mM phenylmethanesulfonyl fluoride (PMSF), and 1 mM dithiothreitol (DTT), 1% Triton X-100, with freshly added protease inhibitor cocktail (Roche, Indianapolis, Ind.). Homogenates were then centrifuged at 12,000 g for 30 minutes at 4° C., and supernatants were then collected and stored at −70° C. Protein contents in lysates were determined using the Bradford assay. Whole cell lysates were prepared using the above lysis buffer. Aliquots of the lysates were then resolved on a SDS-PAGE and then electrotransferred to polyvinylidene difluoride (PVDF) membranes (Millipore, Bedford, Mass., USA) and processed for immunoblot analysis.
(§2) Antibodies used in the immunoblot study included anti-type I collagen 1A1 antibody (1:1000 dilution), anti-MMP-1 antibody (1:500 dilution) and anti-β-actin antibody (1:10000 dilution). Proteins of interest were detected using the appropriate IgG-HRP secondary antibody and ECL reagent (Amersham, Arlington Heights, Ill., USA). X-ray films were scanned on a Model GS-700 Imaging Densitometer (Bio-Rad Laboratories, Hercules, Calif.) and analyzed using Labworks 4.0 software. For quantification, blots from at least three independent experiments were used.
WS-1 were seeded on a six-well plate at a density of 1×10^5 cells per well and grown in the 10% FBS-DMEM growth medium for 24 hours and then incubated with 1% FBS-DMEM supplemented with or without 100 nM PEDF peptide for further 24 hours. The cells were washed twice with phosphate buffered saline (PBS) and exposed to UVB radiation covered with PBS. The UVB treatment was conducted in a cell culture hood by using a UVB lamp (model XL-1000B, Spectrolinker™ Inc.) at a final dose of 15 mJ/cm^2 for about 100 seconds. Cell viability was assayed using trapan blue exclusion assay (>95%). After UVB irradiation, PBS was replaced with 1% FBS-DMEM with or without PEDF peptide for further 48 hours and then protein extracts were assayed by western blotting for the expression of MMP-1 protein. Cells that were not subjected to UVB irradiation were used as control (normal). The expression level of MMP-1 was normalized with the expression level in the Vehicle/UVB group (set to 100%), and quantitative results are summarized in Table 6.

[2] = test system: dermal collagen; assay: Dermal collagen content, Masson's trichrome stained collagen area in depilated mouse skin; format: in vivo, C57BL/6 mice; details: for Collagen Area (fold): ointment plus microneedle (MN), twice a week for two weeks, day 14, normalized with Vehicle/MN; for collagen level (Masson's trichrome sections) versus vehicle/CT: ointment without microneedle treatment (CT)
Procedure: General histology was performed using hematoxylin and eosin (H&E) dye. Deparaffinized skin tissue sections were stained using Masson's Trichrome (Sigma-Aldrich, St. Louis, Mo.) according to the manufacturer's instructions; sections was examined and photographed by a Nikon Eclipse 80i light microscope (original magnification, ×400). For semi-quantitative analysis of collagen area, 10 fields from each slide were randomly selected under the light microscope, and the blue-stained area per entire area of the cross section (mm^2/mm^2) was measured using the Image-Pro Plus 4.5.1 system (Media Cybernetics).
Collagen is the major matrix component of the dermis and forms a tough fiber framework to provide the elastic property of the skin. This working example investigated whether the present PEDF peptides increase dermal collage content. Mice depilated as described in Example 1 were randomly assigned to several experimental groups and treated as follows. For each mouse, one side of the dorsal midline (about 2 cm^2) received 50 μl of ointment (the 29-mer, 20-mer, or DMSO-containing ointment) and a subsequent microneedle treatment; while the other side of the dorsal midline (about 2 cm^2) received 50 μl of the same ointment without the microneedle treatment. The treatment was given twice a week for two weeks, and the skin was left uncovered and harvested 14 days after the first treatment. Skin specimens were stained with Masson's trichrome stain (blue) for dermal collagen; representative images are provided in FIG. 2. The stained collagen area in the skin was quantified as taught above in the “Materials and Methods” section, and the results were normalized with the area of Vehicle/MN. The level of type I collagen (COL1A1) was investigated by the above-described immunoblot analysis, and the results were normalized with the level of the vehicle/CT group.

[3] = test system: dermal fibroblasts; assay: Dermal fibroblast proliferation in vivo, BrdU/vimentin staining of skin sections; parameters: species or system mice; details: normal skin, 16 hours after peptide/MN treatment
Procedure: For animal study, BrdU was reconstituted in DMSO as stock (80 mM). 10 μl of BrdU stock mixed with 90 μl of PBS was intraperitoneally injected into mouse at 16 hours prior to euthanasia. Formalin-fixed, paraffin-embedded skin specimens were deparaffinized in xylene and rehydrated in a graded series of ethanol. The specimens were then exposed to 1 N HCl at room temperature for 1 hour for subsequent immunofluorescence study.
BrdU-labeled DNA was detected by polyclonal anti-BrdU antibody and rhodamine-conjugated donkey anti-rabbit IgG. Nuclei were counterstained with Hoechst 33258 (blue).
To investigate whether the transdermal delivery of the present PEDF peptides promotes the proliferation of dermal fibroblast in vivo, mice were intraperitoneally injected with BrdU and euthanized at 16 hours after the PEDF peptide/MN treatment or the vehicle/MN treatment. Skin sections were stained for vimentin (green) and BrdU (red). The level of BrdU- and vimentin-double positive cells was expressed as the percentage of BrdU- and vimentin-double positive cells per total vimentin-positive cells (the BrdU/Vimentin Labeling Index), and the results are summarized in Table 4.

[4] = test system: dermal fibroblasts; assay: Vimentin-positive fibroblast count in dermis of treated mice; format: in vivo, C57BL/6 mice; details: ointment plus microneedle (MN), specimens from Example 2
Procedure: Collagen is the major matrix component of the dermis and forms a tough fiber framework to provide the elastic property of the skin. This working example investigated whether the present PEDF peptides increase dermal collage content. Mice depilated as described in Example 1 were randomly assigned to several experimental groups and treated as follows. For each mouse, one side of the dorsal midline (about 2 cm^2) received 50 μl of ointment (the 29-mer, 20-mer, or DMSO-containing ointment) and a subsequent microneedle treatment; while the other side of the dorsal midline (about 2 cm^2) received 50 μl of the same ointment without the microneedle treatment. The treatment was given twice a week for two weeks, and the skin was left uncovered and harvested 14 days after the first treatment. Skin specimens were stained with Masson's trichrome stain (blue) for dermal collagen; representative images are provided in FIG. 2. The stained collagen area in the skin was quantified as taught above in the “Materials and Methods” section, and the results were normalized with the area of Vehicle/MN. […]
Specimens from Example 2, above, were also stained for the fibroblast marker, vimentin, and the vimentin-positive cells were counted under microscope.

[5] = test system: type I collagen (COL1A1); assay: Type I collagen (COL1A1) level in mouse skin by immunoblot; format: in vivo, C57BL/6 mice; details: ointment plus microneedle (MN), twice a week for two weeks, day 14; normalized with vehicle/CT
Procedure: as §1
as §2, with “used. […]” for “used.”

[6] = test system: primary mouse dermal fibroblasts; assay: Cell viability of primary mouse dermal fibroblasts pretreated with peptide; format: cell-based; details: 100 nM for 24 hours, data not shown
From the text: (§3) According to our preliminary study, cell viability was greater than 95% relative to that of the control after exposure to 15 mJ/cm^2 UVB irradiation (data not shown). […] Therefore, the exposure dose was set at 15 mJ/cm^2 in the following experiment.

[7] = test system: Human dermal fibroblasts (WS-1 cells); assay: Cell viability of WS-1 cells pretreated with peptide; format: cell-based; details: 100 nM for 24 hours, data not shown
From the text: as §3

[8] = test system: primary mouse dermal fibroblasts; assay: Cell migration of primary mouse dermal fibroblasts, transwell assay; format: cell-based; details: 100 nM for 24 hours, data not shown
[9] = test system: Human dermal fibroblasts (WS-1 cells); assay: Cell migration of WS-1 cells, transwell assay; format: cell-based; details: 100 nM for 24 hours, data not shown
From the text: as §3

[10] = 100 nM peptide 24 h before and 48 h after UVB 15 mJ/cm^2

Substance	MMP-1 Expression Level (%) [1, 10]	MMP-1 protein level relative to vehicle/UVB group [1]	Collagen Area (fold) [2]	collagen level (Masson's trichrome sections) versus vehicle/CT [2]	BrdU/Vimentin Labeling Index (%) [3]	Vimentin+ Cells per mm^2 [4]	COL1A1 Level (fold) [5]	MMP-1 Expression Level (%) ([1]; 100 nM peptide, no UVB irradiation)	cell viability [6]	cell viability [7]	cell migration [8]	cell migration [9]
SLGAEQRTESIIHRALYYDL [20-mer, synthetic peptide corresponding to residues 93-112 of human PEDF]	50 ± 5.1 %	about half	1.6 ± 0.11 fold	no significant difference	17.3 ± 3.2 %	1745 ± 143 Cells per mm^2	1.8 ± 0.20 fold					
Ac-SLGAEQRTESIIHRALYYDLISSPDIHGT-NH2 [29-mer]	42 ± 3.3 %	about half	1.7 ± 0.14 fold	no significant difference	16.9 ± 1.9 %	1688 ± 197 Cells per mm^2	1.7 ± 0.24 fold	5 ± 2.3%	did not cause any significant change in cell viability	did not cause any significant change in cell viability	did not cause any significant change in cell migration	did not cause any significant change in cell migration
